Reference: the NIST ThermoML archive (doi:10.1016/j.fluid.2006.02.023)
Numbers after ± are expanded uncertainties.

Settings: 303.15 K; 101.33 kPa; Liquid

mass density | speed of sound | viscosity | Structure (SMILES)
795.8 ± 0.9 kg/m3 | 1182.6 ± 2.5 m/s | 1.663 ± 0.078 mPa·s | CCCO [propan-1-ol]
784.4 ± 0.9 kg/m3 | 1144.3 ± 2.4 m/s | 0.9675 ± 0.048 mPa·s | CCO [ethanol]
 | 1505.2 ± 3 m/s | 0.7975 ± 0.041 mPa·s | O [water]
782.4 ± 0.9 kg/m3 | 1088.5 ± 2.3 m/s | 0.5041 ± 0.028 mPa·s | CO [methanol]
777.3 ± 0.9 kg/m3 | 1126.6 ± 2.4 m/s | 1.614 ± 0.076 mPa·s | CC(C)O [propan-2-ol]

Second part, the compound before the results:

Structure (SMILES) | mass density | speed of sound | viscosity
C1COCO1 [1,3-dioxolane] | 1051.8 ± 1.2 kg/m3 | 1288.5 ± 2.6 m/s | 0.5487 ± 0.03 mPa·s
CC(C)(C)O [2-methylpropan-2-ol] | 775.1 ± 0.9 kg/m3 | 1078.8 ± 2.3 m/s | 3.099 ± 0.14 mPa·s
CC(C)CCO [3-methylbutan-1-ol] | 803.2 ± 0.9 kg/m3 | 1197 ± 2.5 m/s | 3.111 ± 0.14 mPa·s
CCC(C)O (centres undefined) [butan-2-ol] | 799.2 ± 0.9 kg/m3 | 1168.9 ± 2.4 m/s | 2.339 ± 0.11 mPa·s
CCCCO [butan-1-ol] | 802.1 ± 0.9 kg/m3 | 1196.6 ± 2.5 m/s | 2.54 ± 0.11 mPa·s
